“And” between values parts separate entries of the source, which are not always exact repeats. Equal values may be shown once.
Legend:
CCRF-CEM cells [1] = experiment: antitumor effect of KM 2760 and cyclophosphamide in combination, CCRF-CEM cells grafted in nude mouse; assay type: in vivo, Balb/c nude mouse; conditions: Day 4; KM 2760 800 μg per mouse Day 0 and Day 4; CPA 65 mg/kg Day 0; tail vein
Experimental: CCRF-CEM cells (human T cell leukemia cell line) were suspended in RPMI 1640 medium (Gibco BRL) at a concentration of 2×10^8 cells/mL, and 100 μL of the suspension was grafted intradermally in the right flank of Balb/c nude mice (Nippon Crea, male). On Day 18 after the cell grafting, a diameter of a tumor was measured with calipers, and a tumor volume was calculated using formula 2 in Example 2.
Individuals having the tumor volume within the range of 116 to 349 mm^3 (on average 219 mm^3) were selected, and grouped such that the average tumor volume to be almost the same. Each of the following agent A to D was administered to the mice. Incidentally, the grouping day was defined as Day 0.
The experiment was conducted with groups each consisting of five mice. Each of the agents was diluted with a physiological saline (Otsuka Seiyaku), and the diluent was administered from the tail vein. On Day 4, the tumor volume was measured. The antitumor effect was evaluated by comparing an average values of a tumor volume change (V/V0) on each measurement day when the tumor volume on Day 0 in each group was defined as V0.

CCRF-CEM cells [2] = experiment: antitumor effect of KM 2760 and Methotrexate in combination, CCRF-CEM cells grafted in nude mouse; assay type: in vivo, Balb/c nude mouse; conditions: Day 7; KM 2760 800 μg per mouse Day 0 and Day 4; MTX 15 mg/kg Day 0 to Day 4; tail vein
Experimental: (§1) CCRF-CEM cells (human T cell leukemia cell line) were suspended in RPMI 1640 medium (Gibco BRL) at a concentration of 2×10^8 cells/mL, and 100 μL of the suspension was grafted into the ventral skin of Balb/c nude mice (CLEA Japan Inc. male). On Day 17 after the cell grafting, a diameter of a tumor was measured with calipers, and a tumor volume was calculated using formula 2 in Example 2.
(§2) Individuals having the tumor volume within the range of 121 to 348 mm^3 (on average 195 mm^3) were selected, and grouped such that the average tumor volume to be almost the same. Each of the following agents A to D was administered to the mice. Incidentally, the grouping day was defined as Day 0.
(§3) B. Group of administering KM 2760 alone: 800 μg of KM2760 was administered per mouse on Day 0 and Day 4.
C. Group of administering Methotrexate (hereinafter referred to as MTX; Methotrexate injection solution, Nippon Weisledary K.K.) alone: 15 mg/kg of MTX was administered per mouse for 5 days from Day 0 to Day 4. […]
The experiment was conducted with groups each consisting of five mice. […] On Day 7, the tumor volume was measured. The antitumor effect was evaluated by comparing average values of a tumor volume change (V/V0) when the tumor volume on Day 0 in each group was defined as V0.

CCRF-CEM cells [3] = experiment: antitumor effect of KM 2760 and vincristine in combination, CCRF-CEM cells grafted in nude mouse; assay type: in vivo, Balb/c nude mouse; conditions: Day 10; KM 2760 800 μg per mouse Day 0 and Day 4; VCR 0.55 mg/kg Day 0; tail vein
CCRF-CEM cells [4] = experiment: antitumor effect of KM 2760 and etoposide in combination, CCRF-CEM cells grafted in nude mouse; assay type: in vivo, Balb/c nude mouse; conditions: Day 7; KM 2760 800 μg per mouse Day 0 and Day 4; VP-16 10 mg/kg Day 0 to Day 4; tail vein
Experimental: as §1, with “(Nippon Crea,” for “(CLEA Japan Inc.”
as §2, with “range of from 121 to” for “range of 121 to”, “D was then administered to” for “D was administered to”
as §3
C. Group of administering etoposide (hereinafter referred to as VP-16; Lastet injection, Nippon Kayaku Co., Ltd.) alone: 10 mg/kg of VP-16 was administered per mouse for 5 days from Day 0 to Day 4. […]
The experiment was conducted with groups each consisting of five mice. […] On Day 7, the tumor volume was measured. The antitumor effect was evaluated by comparing average values of a tumor volume change (V/V0) on Day 7 when the tumor volume on Day 0 in each group was defined as V0.

CCR4/EL4 cells [5] = experiment: antitumor effect of KM 2760 and IFN-α in combination, CCR4/EL4 cells grafted into tail vein of C57BL/6 mice, liver weight ratio; assay type: in vivo, C57BL/6 mouse
Experimental: CCR4/EL4 cells were suspended in RPMI 1640 medium (manufactured by Gibco BRL) at a concentration of 5×10^5 cells/mL, and 100 μl of the suspension was grafted into the tail vein of C57BL/6 mice (CLEA Japan Inc., male, 8 weeks old). Further, mice were grouped into A to D, and each of the agents A to D were administered to the mice. Incidentally, the day on which the tumor was grafted was defined as Day 0.
B. Group of administering IFN-α alone: 5×10^4 units of IFN-α (Universal type I interferon, manufactured by PBL Biomedical Laboratories) was intravenously administered per mouse once a day for 5 days from Day 1 to Day 5.
The experiment was conducted with group A consisting of 7 mice and groups B, C and D each consisting of 6 mice. […] The weight of all mice was measured on Day 14. After etherization and exsanguination, mice were brought to euthanasia by dislocation of the cervical spine. The liver was extracted, and the weight of the liver was then measured. A ratio of the liver weight to the weight of each individual (hereinafter referred to as a weight ration of a liver) was calculated by percentage.
The antitumor effect was evaluated by comparing the liver weight ratio (average value of six mice) of untreated healthy mice measured simultaneously and the liver weight ratio of each group increased by metastasis of tumor cells.
Further, the residual amount of tumor cells in the liver in each group was calculated as a T/C value using the following formula. T/C=(average values of a weight ration of a liver of each group−average value of a weight ration of a liver of an untreated mouse)/(average value of a weight ration of a liver of a negative control group−average value of a weight ration of a liver of an untreated mouse) (Formula 4)

CCR4/EL4 cells [6] = experiment: antitumor effect of KM 2760 and G-CSF in combination, CCR4/EL4 cells grafted into ventral skin of C57BL/6 mice; assay type: in vivo, C57BL/6 mouse
Experimental: CCR4/EL4 cells (WO 01/64754) were suspended, in RPMI 1640 medium (Gibco BRL) at a concentration of 1×10^6 cells/mL, and 100 μL of the suspension was grafted into the right ventral skin of C57BL/6 mice (Nippon Crea, male, 8 weeks old). After, mice were grouped into A to D, each of the agents A to D were administered to each mouse. Incidentally, the day on which the tumor was grafted was defined as Day 0.
B. Group of administering KM 2760 alone: 100 μg of KM2760 was intravenously administered per mouse on Day 0 and Day 4.
C. Group of administering G-CSF alone: 10 μg of G-CSF (Neuup Injection 100, manufactured by Kyowa Hakko Kogyo Co., Ltd.) was subcutaneously administered per mouse once a day for 10 days from 4 days before the tumor grafting (hereinafter referred to as Day-4) to Day 5.
The experiment was conducted with group A consisting of 10 mice and groups B, C and D each consisting of 7 mice. […] Each of the diluent was administered at 100 μL. A diameter of a tumor was measured with calipers chronologically from Day 0 of each group. A tumor volume was calculated using formula 2 in Example 2.
Since the tumor death of the mouse was started in group A from Day 17 on, the evaluation of the tumor volume was finished on Day 14.
The antitumor effect (T/C value) in each group was evaluated by calculation using the following formula 3 for comparison between the average value of the tumor volume in group A and the average values of the tumor volume in each group on the final evaluation day (Day 14). (T/C value)=(average value of tumor volume in each group on Day 14)/average value of tumor volume in group A on Day 14) (Formula 3)

CCR4/EL4 cells [7] = tested on: CCR4/EL4 cells
Experimental: CCR4/EL4 cells (WO 01/64754) were suspended in RPMI 1640 medium (manufactured by Gibco BRL) at a concentration of 1×10^5 cells/mL, and 200 μL of the suspension was grafted into the peritoneal cavity of C57BL/6 mice (CLEA Japan Inc., male, 8 weeks old). After, mice was grouped into A to D, and each of the agents A to D was administered to each mouse. The day on which the tumor was grafted was defined as Day 0.
B. Group of administering M-CSF alone: 100 μg of M-CSF (Leucoprol, manufactured by Kyowa Hakko Kogyo Co., Ltd.) was intraperitoneally administered per mouse twice a day from Day-3 to Day-1 and once a day on Day 0, seven times in total.
The experiment was conducted with groups each consisting of 8 mice. […] The antitumor effect was evaluated by a ratio of average values of the number of survival days of mice in each group to an average value of the number of survival days of mice in the negative control group (hereinafter referred to as a life prolongation ratio).

[8] = KM 2760 50 μg i.p. Day 0, M-CSF 100 μg i.p. seven times

O=P1(N(CCCl)CCCl)NCCCO1 (stereo not drawn) [CPA, cyclophosphamide, reference compound]
T/C (V/V0 of group divided by V/V0 of negative control group) (CCRF-CEM cells [1]): 0.48

CN(Cc1cnc2nc(N)nc(N)c2n1)c1ccc(C(=O)N[C@@H](CCC(=O)O)C(=O)O)cc1 [MTX, Methotrexate, reference compound]
T/C (V/V0 of group divided by V/V0 of negative control group) (CCRF-CEM cells [2]): 0.06

CC[C@]1(O)C[C@H]2CN(CCc3c([nH]c4ccccc34)[C@@](C(=O)OC)(c3cc4c(cc3OC)N(C=O)[C@H]3[C@@](O)(C(=O)OC)[C@H](OC(C)=O)[C@]5(CC)C=CCN6CC[C@]43[C@@H]65)C2)C1 [VCR, vincristine, reference compound]
T/C (V/V0 of group divided by V/V0 of negative control group) (CCRF-CEM cells [3]): 0.49

COc1cc([C@@H]2c3cc4c(cc3[C@@H](O[C@@H]3O[C@@H]5CO[C@@H](C)O[C@H]5[C@H](O)[C@H]3O)[C@H]3COC(=O)[C@H]23)OCO4)cc(OC)c1O [VP-16, etoposide, reference compound]
T/C (V/V0 of group divided by V/V0 of negative control group) (CCRF-CEM cells [4]): 0.71

IFN-α
T/C value (residual amount of tumor cells in the liver, from liver weight ratio) (CCR4/EL4 cells [5]; Day 14, KM 2760 0.5 μg per mouse i.v. Day 1 and Day 5, IFN-α 5×10^4 units per mouse i.v. Day 1 to Day 5): 0.48
antitumor effect compared to untreated group A (liver weight ratio) (CCR4/EL4 cells [5]; FIG. 7, Day 14): low

B1: G-CSF: G-CSF (Neuup Injection 100, manufactured by Kyowa Hakko Kogyo Co., Ltd.) (protein, UniProt P09919 31-207, looked up)
Granulocyte …: TPLGPASSLPQSFLLKCLEQVRKIQGDGAALQEKLVSECATYKLCHPEELVLLGHSLGIPWAPLSSCPSQALQLAGCLSQLHSGLFLYQGLLQALEGISPELGPTLDTLQLDVADFATTIWQQMEELGMAPALQPTQGAMPAFASAFQRRAGGVLVASHLQSFLEVSYRVLRHLAQP
modifications: nartograstim
T/C value (average tumor volume of group / group A) (CCR4/EL4 cells [6]; Day 14, KM 2760 100 μg per mouse i.v. Day 0 and Day 4, G-CSF 10 μg per mouse s.c. once a day Day-4 to Day 5): 0.63
antitumor effect compared to untreated group A (tumor volume) (CCR4/EL4 cells [6]; FIG. 6, up to Day 14): low

B2: M-CSF: M-CSF (Leucoprol, manufactured by Kyowa Hakko Kogyo Co., Ltd.) (protein, UniProt P09603 33-554, looked up)
Macrophage colony-stimulating …: EEVSEYCSHMIGSGHLQSLQRLIDSQMETSCQITFEFVDQEQLKDPVCYLKKAFLLVQDIMEDTMRFRDNTPNAIAIVQLQELSLRLKSCFTKDYEEHDKACVRTFYETPLQLLEKVKNVFNETKNLLDKDWNIFSKNCNNSFAECSSQDVVTKPDCNCLYPKAIPSSDPASVSPHQPLAPSMAPVAGLTWEDSEGTEGSSLLPGEQPLHTVDPGSAKQRPPRSTCQSFEPPETPVVKDSTIGGSPQPRPSVGAFNPGMEDILDSAMGTNWVPEEASGEASEIPVPQGTELSPSRPGGGSMQTEPARPSNFLSASSPLPASAKGQQPADVTGTALPRVGPVRPTGQDWNHTPQKTDHPSALLRDPPEPGSPRISSLRPQGLSNPSTLSAQPQLSRSHSSGSVLPLGELEGRRSTRDRRSPAEPEGGPASEGAARPLPRFNSVPLTDTGHERQSEGSFSPQLQESVFHLLVPSVILVLLAVGGLLFYRWRRRSHQEPQRADSPLEQPEGSPLTQDDRQVELPV
Number of survival days (each mouse) (CCR4/EL4 cells [7]; 8 mice per group, KM 2760 50 μg per mouse i.p. Day 0, M-CSF 100 μg per mouse i.p. seven times Day-3 to Day 0, observation to Day 50): 17 days (2×) and 18 days (3×) and 19 days (2×) and 22 days
Average number of survival days (CCR4/EL4 cells [7]; [8]): 18.8 days
Life prolongation ratio (average survival days of group / negative control group) (CCR4/EL4 cells [7]; [8]): 0.974
antitumor effect in comparison with untreated Group A (survival) (CCR4/EL4 cells [7]; Table 7): no antitumor effect

— US9675625B2, “Medicament comprising recombinant antibody against chemokine receptor CCR4” (KYOWA HAKKO KIRIN CO., LTD., priority 2003, dated 2017)
